The values below come from the NIST ThermoML archive (doi:10.1016/j.jct.2016.11.032).

For data set [1] the following is noted: Crystal; DTA.
Data set [2] is described as follows: Molar enthalpy of transition or fusion. As to conditions: Crystal; DSC.

Numbers after ± are expanded uncertainties.

Turning to `CC(C)(C)C(O)(CCc1ccc(Cl)cc1)Cn1cncn1` (configuration not stated) [tebuconazole], in data set [1], the Normal melting temperature came out at 100.32 ± 1.1 °C. In addition, the “Molar enthalpy of transition or fusion” value in data set [2] came out at 6.92 ± 0.237 kcal/mol.
